Patent publication US20100047332A1, “Treatments for burns using thyroid hormone compound in a human” (priority 2005, published 2010)

Assays:
[1] = tested on: wounds such as lacerations; assay: Lacerations treated with continuous topical T-3 or TriAc; format: in vivo, human; details: continuous topical application, in approximately three days
[2] = tested on: second degree partial thickness scald burn; assay: TriAc cream applied intermittently to a scalding burn in a burn patient; format: in vivo, human
Protocol: The water content was 65 to 75%, with approximately 30% solids. The semi solid cream formulation includes water, emulsifier, aloe vera, and less than 1% of d-tocopherol acetate or equivalent, panthenol, and retinyl palmitate.
On scalding burn day 0, ice was applied all night. The wound appeared as a large reddish area approximately 15 by 30 cm, with an area of white skin approximately 10 by 10 cm. The cream was applied to the entire area in an amount of much less than 1 gm (less than 80 μg per 400 cm^2) on the evening of Day 1, 24 hours post burn. The worst blistering and numbness was over the whitish area. Over the next 48 hours, the wound became somewhat less painful and the white area started to become pink and then red. The outer area extending over the knee remained red. This burn was therefore a split thickness second degree burn with areas of third degree burn.
The cream was applied again on the evening of Day 3, 72 hours post burn, only to a small area of most burned blistered skin over the original whitish area. […] Prior to application of the cream, the entire area was brilliantly red.
The cream was applied again on the evening of Day 4 over the entire area during this application. […] The entire area of the burn now had brownish epidermis in the process of being sloughed. […] FIGS. 1 and 2 are separated by approximately 36 hours.
This is six 24 hour periods from the time of the burn. […] The outline of the burn injury can clearly be seen by examining the margins of the wound.

[3] = tested on: deep dermal pressure ulcer; assay: TriAc cream on a deep dermal pressure ulcer; format: in vivo, human
Source text: The patient was a active triathlete who had developed a bicycle seat ulcer which was a persistent fissure running from coccyx almost to the anus. The deep dermal pressure ulcer resulted from pressure due to a bicycle seat. This pressure injury frequently was oozing and was generally moist. The fissure was 1-2 mm wide and 2-3 mm deep. It was resistant to a variety of over the counter steroid and anti-fungal creams and lanolin. […] The cream was applied for 4 treatments on an every other day basis, using barely enough to treat the area about 20 cm^2, sometimes every third day. […] Skin has remained intact for close to 6 months. The dermal ulcer in this example was non healing until the cream was used on an intermittent basis

[4] = tested on: lateral hip fat deposits; assay: TriAc cream before exercise for lateral hip fat deposits; format: in vivo, human
Source text: A non obese person who ran 20 miles a week had lateral hip fat deposits which were resistant to any change.

[5] = tested on: rat; details: cited from earlier work
[6] = tested on: TSH; details: cited from earlier work
[7] = tested on: thyroid hormone receptor TRα or β; details: cited from earlier work

O=C(O)Cc1cc(I)c(Oc2ccc(O)c(I)c2)c(I)c1 [TriAc, [4-(4-hydroxy-3-iodophenoxy)-3,5-diiodophenyl]acetic acid]
signs of inflammation [1]: increased signs of inflammation
pain in the small treated area ([2]; 24 hours after Day 3 application): greatly diminished
increase in healing rate ([2]; about 1/20th to 1/40th of a normal daily replacement dose, intermittent): greater than 100%
pigmentation or scar ([2]; after 1.5 years): no pigmentation or scar
pain ([2]; after application over entire area on Day 4): All pain was resolved overnight
erythema and tenderness ([2]; applied Day 3 to a small area, only where applied): decrease in erythema and tenderness
healing rate of a burn ([2]; applied twice, less than 80 μg per 400 cm^2, versus time course in medical literature): approximately doubled the healing rate
effect of the first application ([2]; cream applied to entire area on Day 1, observed over next 48 hours): no visible or other obvious indications that the first application had any effect
signs of inflammation or infection in the wound ([2]; day 5): no signs of inflammation or infection
re-epithelialization of the skin ([2]; day 5, 20 hours after second application to entire area): virtually completely re-epithelialized
time to complete re-epithelialization ([2]; post scald second degree partial thickness burn): five to six 24 hour periods
healing time versus average prior art healing time ([2]; prior art 19 days): fourteen days less than the average prior art healing time of 19 days
healing of the ulcer ([3]; 0.006% cream, 4 treatments every other day, over the next few weeks): substantial healing
time skin has remained intact ([3]; after treatment with 0.006% cream): ~6 months
change of fat deposits ([4]; 9 mg TriAc per 100 ml base, 1 to 3 times a week before exercise, for 2 to 3 weeks): Little change
fat deposits ([4]; after 5 weeks of application): could barely be discerned
amount needed to make a 200 gm rat hyperthyroid [5]: approximately 7 micrograms
transient change of TSH levels ([6]; 350 ug oral, over a few hour time period): 30%
minimum oral dosage which transiently changes TSH levels ([6]; oral, human): 350 µg
potency as thyroid hormone agonist [7]: potency about that of T-3
selectivity in binding [7]: slightly Beta selective
